Molecular target: GST-Bcl-2 (Homo sapiens (Human), UniProt P10415)
Experiment: Time Resolved-Fluorescence Resonance Energy Transfer (TR-FRET) Bcl-2 binding assay
Settings: GST-Bcl-2 1 nM, F-Bak peptide probe 100 nM, Tb-anti-GST antibody 1 nM; Ki by Wang's equation
Method in brief: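 Competition TR-FRET: GST-Bcl-2 with fluorescent Bak peptide probe and Tb-anti-GST antibody, compounds serially diluted from 50 μM (2× start, 10% DMSO).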

Sequence of GST-Bcl-2 (P10415 whole entry): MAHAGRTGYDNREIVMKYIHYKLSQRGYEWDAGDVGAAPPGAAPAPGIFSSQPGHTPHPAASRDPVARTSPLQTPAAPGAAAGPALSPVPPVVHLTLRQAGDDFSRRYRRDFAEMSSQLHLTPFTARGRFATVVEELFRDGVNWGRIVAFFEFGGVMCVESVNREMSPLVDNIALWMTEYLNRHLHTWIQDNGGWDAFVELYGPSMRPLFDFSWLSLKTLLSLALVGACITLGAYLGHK

Row | SMILES | Ki [nM]
1 | CC1(C)CCC(CN2CCN(c3ccc(C(=O)NS(=O)(=O)c4ccc(NCC5CCOCC5)c([N+](=O)[O-])c4)c(Oc4ccccc4-c4ccn[nH]4)c3)CC2)=C(c2ccc(Cl)cc2)C1 [Example 408, 4-(4-{[2-(4-chlorophenyl)-4,4-dimethylcyclohex-1-en-1-yl]methyl}piperazin-1-yl)-N-({3-nitro-4-[(tetrahydro-2H-pyran-4-ylmethyl)amino]phenyl}sulfonyl)-2-[2-(1H-pyrazol-5-yl)phenoxy]benzamide] | 1.16
2 | CC1(C)CCC(CN2CCN(c3ccc(C(=O)NS(=O)(=O)c4cnc(OCC5CCC(F)(F)CC5)c(Cl)c4)c(Oc4cnc(N)c(Cl)c4)c3)CC2)=C(c2ccc(Cl)cc2)C1 [Example 409, 2-[(6-amino-5-chloropyridin-3-yl)oxy]-N-({5-chloro-6-[(4,4-difluorocyclohexyl)methoxy]pyridin-3-yl}sulfonyl)-4-(4-{[2-(4-chlorophenyl)-4,4-dimethylcyclohex-1-en-1-yl]methyl}piperazin-1-yl)benzamide] | 0.686
3 | CC1(C)CC(c2ccc(Cl)cc2)=C(CN2CCN(c3ccc(C(=O)NS(=O)(=O)c4cnc(OCC5CCC(F)(F)CC5)c(Cl)c4)c(Oc4cc5cc[nH]c5cc4F)c3)CC2)CO1 [Example 410, N-({5-chloro-6-[(4,4-difluorocyclohexyl)methoxy]pyridin-3-yl}sulfonyl)-4-(4-{[4-(4-chlorophenyl)-6,6-dimethyl-5,6-dihydro-2H-pyran-3-yl]methyl}piperazin-1-yl)-2-[(6-fluoro-1H-indol-5-yl)oxy]benzamide] | < 0.01
4 | CC1(C)CCC(CN2CCN(c3ccc(C(=O)NS(=O)(=O)c4ccc(NCC5CCC(F)(F)CC5)c([N+](=O)[O-])c4)c(Oc4cc5cc[nH]c5cc4F)c3)CC2)=C(c2ccc(Cl)cc2)C1 [Example 411, 4-(4-{[2-(4-chlorophenyl)-4,4-dimethylcyclohex-1-en-1-yl]methyl}piperazin-1-yl)-N-[(4-{[(4,4-difluorocyclohexyl)methyl]amino}-3-nitrophenyl)sulfonyl]-2-[(6-fluoro-1H-indol-5-yl)oxy]benzamide] | 21.3

Source: patent publication US8952157B2, “Apoptosis-inducing agents for the treatment of cancer and immune and autoimmune diseases” (AbbVie Inc., priority 2008, dated 2015)
